# Test system: rabbit skeletal myofibrils (approximately 90% fast fibers)
# Experiment: Activation of fast skeletal myofibrils (PUMA coupled-enzyme ATPase assay at pCa25)
# Assay type: biochemical
# Details: concentration at which the compound increased the enzymatic activity by 40%; calcium at pCa25; PM12 buffer pH 6.8
# Protocol: Preparation of fast skeletal myofibrils. Rabbit skeletal myofibrils were prepared based upon the method of Herrmann et al. (Biochem. 32(28):7255-7263(1993). Myofibrils were prepared from rabbit psoas muscle purchased from Pel-Freez Biologicals (Arkansas) within 2 days of ordering, stored on ice. Minced muscle was homogenized in 10 volumes of ice-cold “standard” buffer (50 mM Tris, pH 7.4, 0.1 M potassium acetate, 5 mM KCl, 2 mM DTT, 0.2 mM PMSF, 10 μM leupeptin, 5 μM pepstatin, and 0.5 mM sodium azide) containing 5 mM EDTA and 0.5% Triton X-100 using an Omni-Macro homogenizer. Myofibrils were recovered by low speed centrifugation (3000 rpm for 10 minutes) and washed 2 times in the Triton X-100 containing buffer to ensure removal of cellular membrane. Following the Triton washes, myofibrils were washed 3 times in “standard” buffer containing 2 mM magnesium acetate. A final wash in assay buffer (12 mM PIPES, pH 6.8, 60 mM KCl, 1 mM DTT) was performed and brought to 10% sucrose for flash freezing in liquid nitrogen and storage at −80° C.
# Activation of Fast Skeletal Myofibrils. Fast fiber activators were identified by measuring the enzymatic activity of muscle myofibril preparations using the proprietary PUMA™ (see, e.g., U.S. Pat. Nos. 6,410,254, 6,743,599, 7,202,051, and 7,378,254) assay system. Myofibril preparations consisted of rabbit skeletal muscle (approximately 90% fast fibers) that had been mechanically homogenized and washed with a detergent (triton X-100) to remove cellular membranes. This preparation retained all of the sarcomeric components in a native conformation and the enzymatic activity was still regulated by calcium. Compounds were tested using a myofibril suspension and a level of calcium sufficient to increase enzymatic activity of the myofibrils to 25% of their maximal rate (termed pCa25). Enzymatic activity was tracked via a pyruvate kinase and lactate dehydrogenase-coupled enzyme system. This assay regenerates myosin-produced ADP into ATP by oxidizing NADH, producing an absorbance change at 340 nm. The buffering system was 12 mM Pipes, 2 mM MgCl2, 1 mM DTT at pH 6.8 (PM12 buffer).
row,Mean AC1.4,Compound
1,B (B=1-10 uM),CC(C)(Nc1ncc(-c2cn3c(C(N)=O)csc3n2)cn1)c1ncccc1Cl
2,B (B=1-10 uM),CC(C)(Nc1ncc(-c2cn3c(C(=O)O)csc3n2)cn1)c1ncccc1Cl
3,D (D=>20 uM),"2-{[2-(4-f1uorophenyl)-2- methylpropyl]amino}-5,6,7,8- tetrahydropyridino[4,3- d]pyrimidine-6-carboxamide"
4,D (D=>20 uM),CC(C)(Nc1ncc(-n2cc(C#N)cn2)cn1)c1ncccc1Cl [1-(2-{[1-(3-chloro(2-pyridyl))-isopropyl]amino}pyrimidin-5-yl)pyrazole-4-carbonitrile]
5,B (B=1-10 uM),CC(C)(Nc1ncc(-n2cc(C(N)=O)cn2)cn1)c1ncccc1Cl [1-(2-{[1-(3-chloro(2-pyridyl))-isopropyl]amino}pyrimidin-5-yl)pyrazole-4-carboxamide]
6,D (D=>20 uM),CC(C)(Nc1ncc(-n2cc(C(=O)O)cn2)cn1)c1ncccc1Cl [1-(2-{[1-(3-chloro(2-pyridyl))-isopropyl]amino}pyrimidin-5-yl)pyrazole-4-carboxylic acid]
7,B (B=1-10 uM),CC(C)(Nc1ncc(-n2ccc(C(N)=O)c2)cn1)c1ncccc1Cl [1-(2-{[1-(3-chloro(2-pyridyl))-isopropyl]amino}pyrimidin-5-yl)pyrrole-3-carboxamide]
8,D (D=>20 uM),CC(C)(Nc1ncc(-n2cc(C(N)=O)cn2)cn1)c1ncccc1F [1-(2-{[1-(3-fluoro(2-pyridyl))-isopropyl]amino}pyrimidin-5-yl)pyrazole-4-carboxamide]
9,D (D=>20 uM),NC(=O)c1ccc(=O)n(-c2cnc(NC[C@]3(c4ncccc4F)C[C@H](F)C3)nc2)c1 [1-[2-({[3-fluoro-1-(3-fluoro(2-pyridyl))cyclobutyl]methyl)amino)pyrimidin-5-yl]-6-oxohydropyridine-3-carboxamide]
10,D (D=>20 uM),O=C(O)c1ccc(=O)n(-c2cnc(NC[C@]3(c4ncccc4F)C[C@H](F)C3)nc2)c1 [1-[2-({[3-fluoro-1-(3-fluoro(2-pyridyl))cyclobutyl]methyl}amino)pyrimidin-5-yl]-6-oxohydropyridine-3-carboxylic acid]
11,C (C=10-20 uM),N#Cc1cnn(-c2cnc(NC[C@]3(c4ncccc4F)C[C@H](F)C3)nc2)c1 [1-[2-({[3-fluoro-1-(3-fluoro(2-pyridyl))cyclobutyl]methyl}amino)pyrimidin-5-yl]pyrazole-4-carbonitrile]
12,A (A=<1 uM),NC(=O)c1ccn(-c2cnc(NC[C@]3(c4ncccc4F)C[C@H](F)C3)nc2)c1 [1-[2-({[3-fluoro-1-(3-fluoro(2-pyridyl))cyclobutyl]methyl}amino)pyrimidin-5-yl]pyrrole-3-carboxamide]
13,D (D=>20 uM),O=C(O)c1ccn(-c2cnc(NC[C@]3(c4ncccc4F)C[C@H](F)C3)nc2)c1 [1-[2-({[3-fluoro-1-(3-fluoro(2-pyridyl))cyclobutyl]methyl}amino)pyrimidin-5-yl]pyrrole-3-carboxylic acid]
14,D (D=>20 uM),O=c1cc(O)ccn1-c1cnc(NC[C@]2(c3ncccc3F)C[C@H](F)C2)nc1 [1-[2-({[3-fluoro--1-(3-fluoro(2-pyridyl))cyclobutyl]methyl)amino)pyrimidin-5-yl]-4-hydroxyhydropyridin-2-one]
15,B (B=1-10 uM),NC(=O)c1cnn(-c2cnc(NCC3(c4ncccc4F)CCC3)nc2)c1 [1-[2-({[(3-fluoro-2-pyridyl)cyclobutyl]methyl}amino)pyrimidin-5-yl] pyrazole-4-carboxamide]
16,D (D=>20 uM),O=C(O)c1cnn(-c2cnc(NCC3(c4ncccc4F)CCC3)nc2)c1 [1-[2-({[(3-fluoro-2-pyridyl)cyclobutyl]methyl}amino)pyrimidin-5-yl]pyrazole-4-carboxylic acid]
17,D (D=>20 uM),CC(C)(CNc1ncc(C(=O)NC2(C(N)=O)CC2)cn1)c1ccc(F)cc1 [1-[(2-{[2-(4-fluorophenyl)-2-methylpropyl]amino}pyrimidin-5-yl)carbonylamino] cyclopropanecarboxamide]
18,D (D=>20 uM),CC(C)(CNc1ncc(C(=O)NC2(C(=O)O)CC2)cn1)c1ccc(F)cc1 [1-[(2-{[2-(4-fluorophenyl)-2-methylpropyl]amino}pyrimidin-5-yl)carbonylamino] cyclopropanecarboxylic acid]

row,Mean AC1.4,Compound
1,D (D=>20 uM),"CC(C)(Nc1ncc(-c2nc(C(N)=O)co2)cn1)c1ncccc1Cl [2-(2-{[1-(3-chloro(2-pyridyl))-isopropyl]amino}pyrimidin-5-yl)-1,3-oxazole-4-carboxamide]"
2,D (D=>20 uM),"CC(C)(Nc1ncc(-c2ncc(C(N)=O)o2)cn1)c1ncccc1Cl [2-(2-{[1-(3-chloro(2-pyridyl))-isopropyl]amino}pyrimidin-5-yl)-1,3-oxazole-5-carboxamide]"
3,D (D=>20 uM),"CC(C)(Nc1ncc(-c2ncc(C(=O)O)o2)cn1)c1ncccc1Cl [2-(2-{[1-(3-chloro(2-pyridyl))-isopropyl]amino}pyrimidin-5-yl)-1,3-oxazole-5-carboxylic acid]"
4,D (D=>20 uM),"CC(C)(Nc1ncc(-c2nc(C(=O)O)cs2)cn1)c1ncccc1Cl [2-(2-{[1-(3-chloro(2-pyridyl))-isopropyl]amino}pyrimidin-5-yl)-1,3-thiazole-4-carboxylic acid]"
5,B (B=1-10 uM),"CC(C)(Nc1ncc(-c2ncc(C(N)=O)s2)cn1)c1ncccc1Cl [2-(2-{[1-(3-chloro(2-pyridyl))-isopropyl]amino}pyrimidin-5-yl)-1,3-thiazole-5-carboxamide]"
6,C (C=10-20 uM),"CC(C)(Nc1ncc(-c2cn3cc(C(N)=O)ccc3n2)cn1)c1ncccc1Cl [2-(2-{[1-(3-chloro(2-pyridyl))-isopropyl]amino}pyrimidin-5-yl)-4-hydroimidazo[1,2-a]pyridine-6-carboxamide]"
7,D (D=>20 uM),"CC(C)(Nc1ncc(-c2cn3cc(C(=O)O)ccc3n2)cn1)c1ncccc1Cl [2-(2-{[1-(3-chloro(2-pyridyl))-isopropyl]amino}pyrimidin-5-yl)-4-hydroimidazo[1,2-a]pyridine-6-carboxylic acid]"
8,D (D=>20 uM),"CC(C)(Nc1ncc(-c2cn3ccc(C(N)=O)cc3n2)cn1)c1ncccc1Cl [2-(2-{[1-(3-chloro(2-pyridyl))-isopropyl]amino}pyrimidin-5-yl)-4-hydroimidazo[1,2-a]pyridine-7-carboxamide]"
9,B (B=1-10 uM),"CC(C)(Nc1ncc(-c2cn3cccc(C(N)=O)c3n2)cn1)c1ncccc1Cl [2-(2-{[1-(3-chloro(2-pyridyl))-isopropyl]amino}pyrimidin-5-yl)-4-hydroimidazo[1,2-a]pyridine-8-carboxamide]"
10,C (C=10-20 uM),CC(C)(Nc1ncc(-c2cc(C#N)ccn2)cn1)c1ncccc1Cl [2-(2-{[1-(3-chloro(2-pyridyl))-isopropyl]amino}pyrimidin-5-yl)pyridine-4-carbonitrile]
11,B (B=1-10 uM),CC(C)(Nc1ncc(-c2cc(C(N)=O)ccn2)cn1)c1ncccc1Cl [2-(2-{[1-(3-chloro(2-pyridyl))-isopropyl]amino}pyrimidin-5-yl)pyridine-4-carboxamide]
12,D (D=>20 uM),"CC(C)(Nc1ncc(-c2nc(C(=O)O)co2)cn1)c1ncccc1Cl [2-(2-{[1-(3-chloro(2-pyridyl))-isopropyl}amino}pyrimidin-5-yl)-1,3-oxazole-4-carboxylic acid]"
13,D (D=>20 uM),"CC(C)(Nc1ncc(-c2nc(C(N)=O)cs2)cn1)c1ncccc1F [2-(2-{[1-(3-fluoro(2-pyridyl))-isopropyl]amino}pyrimidin-5-yl)-1,3-thiazole-4-carboxamide]"
14,D (D=>20 uM),"CC(C)(Nc1ncc(-c2ncc(C#N)s2)cn1)c1ncccc1F [2-(2-{[1-(3-fluoro(2-pyridyl))-isopropyl]amino}pyrimidin-5-yl)-1,3-thiazole-5-carbonitrile]"
15,D (D=>20 uM),"CC(C)(Nc1ncc(-c2ncc(C(N)=O)s2)cn1)c1ncccc1F [2-(2-{[1-(3-fluoro(2-pyridyl))-isopropyl]amino}pyrimidin-5-yl)-1,3-thiazole-5-carboxamide]"
16,D (D=>20 uM),CC(C)(Nc1ncc(-c2nccc(C(N)=O)n2)cn1)c1ncccc1F [2-(2-{[1-(3-fluoro(2-pyridyl))-isopropyl]amino}pyrimidin-5-yl)pyrimidine-4-carboxamide]
17,D (D=>20 uM),"COc1ccnc(C(C)(C)Nc2ncc(-c3ncc(C(N)=O)s3)cn2)n1 [2-(2-{[1-(4-methoxypyrimidin-2-yl)-isopropyl]amino}pyrimidin-5-yl)-1,3-thiazole-5-carboxamide]"

# From patent US11369565B2, “Amino-pyrimidine skeletal muscle modulators” (Cytokinetics, Inc., priority 2010, dated 2022)
